{
  "source": "patent US20040038933A1",
  "about": "“Pharmaceutical compositions, dose and method for treating malaria” (priority 2000, published 2004)",
  "key": {"[1]": {"tested_on": "asexual malarial parasites", "assay": "Recovery from coma in patients with severe/cerebral malaria, combined administration of CRDS and artesunate", "format": "in vivo", "conditions": "male patients in a coma, Glasgow Coma Score, CRDS 4 mg/kg i.v. infusion every 8 hours for 4 days, artesunate i.v. up to 600 mg, 13 patients per group, FIG. 2", "procedure": "CRDS (molecular weight 80,000; sulfur content 14.5%) was used as a sulfated polysaccharide and artesunate was used as an artemisinin compound.\n(§1) CRDS was used as a solution containing 100 mg of CRDS, 50 mg of mannitol, 18 mg of dibasic sodium phosphate and phosphate buffer (pH 6.5) per vial.\n(§2) CRDS was intravenously administered (infusion) at 4 mg/kg every 8 hours in a total daily dose of 12 mg/kg for 4 days.\n(§3) Physiological saline was used as a placebo and administered according to the same schedule as for CRDS.\n(§4) Artesunate (60 mg/vial) was intravenously administered to both CRDS and placebo groups at a dose of initially 120 mg, and then 60 mg every 12 hours up to a total dose of 600 mg. If possible, tablets containing 50 mg of artesunate were orally administered.\nComa was determined by Glasgow Coma Score.\nFor each of the CRDS group and the placebo group, 13 patients completed this protocol. The time required for each patient to recover from coma was recorded. Fisher's exact test was used to compare the number of patients who recovered from coma within 120 hours between both groups (CRDS group and placebo group)."}, "P. falcipanini": {"tested_on": "P. falcipanini", "assay": "Recovery from fever in patients with severe malaria, combined administration of CRDS and artesunate", "format": "in vivo", "conditions": "CRDS 4 mg/kg i.v. infusion every 8 hours for 4 days, artesunate i.v. 120 mg then 60 mg every 12 hours up to 600 mg, 22 patients per group, FIG. 1", "procedure": "Sodium curdlan sulfate (hereinafter referred to as “CRDS”; molecular weight 80,000; sulfur content 14.5%) was used as a sulfated polysaccharide and artesunate (dihydroartemisinin hemisuccinate, see formula I, J. Med. Chem., 30, 2147 (1987)) was used as an artemisinin compound.\nas §1, §2, §3\nas §4, with “mg (according to the current standard therapy in the Bangkok Hospital for Tropical Diseases).” for “mg.”\nFifty patients were randomly divided into a CRDS group and a placebo group. The patients were males and females at the ages of 12-65 in whom P. falcipanini was found. The patients had symptoms of severe malaria (with hypoglycemia corrected) and excluded those having symptoms of cerebral malaria. […]\nThe time required for each patient to recover from fever after starting the treatment was recorded. […]"}},
  "data": [
    {"smiles": "C[C@H]1[C@H](OC(=O)CCC(=O)O)O[C@@H]2O[C@@]3(C)CC[C@H]4[C@H](C)CC[C@@H]1[C@@]24OO3", "note": "[artesunate, dihydroartemisinin hemisuccinate]", "values": [
      {"measurement": "time required for all the patients to recover from coma", "setting": "[1]", "value": 9, "unit": "days"},
      {"measurement": "time required for all the patients to recover from fever", "setting": "P. falcipanini", "value": 9, "unit": "days"}
    ]}
  ]
}
